Laboratory results from ChEMBL document CHEMBL1128868, “A carotane sesquiterpene as a potent modulator of the Maxi-K channel from Arthrinium phaesospermum” (Bioorg Med Chem Lett, 1995).
Activity calls are given as the source filed them. No cut-off for these calls is given here.

Assays:
[1] = organism: Bos taurus; experiment: Inhibition of [125I]ChTX binding to Maxi-K channels in bovine aortic sarcolemmal membranes; format: cell membranes; details: Aorta
[2] = target: Potassium voltage-gated channel subfamily A member 3 (Rattus norvegicus) (UniProt P15384); experiment: Inhibition of [125I]ChTX binding to voltage-gated potassium channel in rat brain synaptic plasma membranes; No effect; format: cell membranes; details: Membrane
Chain of Potassium voltage-gated channel subfamily A member 3 (Rattus norvegicus) (P15384 whole entry): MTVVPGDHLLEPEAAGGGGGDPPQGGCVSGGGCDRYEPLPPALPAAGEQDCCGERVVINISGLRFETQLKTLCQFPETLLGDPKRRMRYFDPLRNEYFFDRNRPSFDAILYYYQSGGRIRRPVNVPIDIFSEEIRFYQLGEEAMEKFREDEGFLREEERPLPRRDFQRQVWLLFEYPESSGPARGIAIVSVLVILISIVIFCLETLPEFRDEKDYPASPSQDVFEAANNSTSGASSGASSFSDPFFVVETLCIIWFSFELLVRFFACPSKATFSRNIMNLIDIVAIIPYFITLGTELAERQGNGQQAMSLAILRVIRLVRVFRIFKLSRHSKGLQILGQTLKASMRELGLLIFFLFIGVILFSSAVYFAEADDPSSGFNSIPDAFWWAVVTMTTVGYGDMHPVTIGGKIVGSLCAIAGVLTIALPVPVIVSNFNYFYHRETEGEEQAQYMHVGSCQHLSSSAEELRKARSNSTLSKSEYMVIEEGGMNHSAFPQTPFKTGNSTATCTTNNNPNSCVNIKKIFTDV

With `CC1=CC[C@@]2(C)C[C@H](O)[C@@](O)(C(C)C)[C@@H]2CC1` the inhibition [1] was 200 nM and the inhibition [2] was “inactive”.
